Like-named read-outs stand apart in the source and are kept apart here.
Assays:
ApoE −/− mice [1] = experiment: Abdominal fatty mass, ApoE mice on regimen rich in cholesterol and fat; format: in vivo; settings: 1 mg/kg, 3 months
Source text: (§1) Firstly, mice devoid of the coding gene for Apo lipoprotein E (ApoE −/−) have been used. These mice represent a model of choice of studying early atherosclerosis and development of a plaque rich in foamy macrophages. Male C57BL/6J mice homozygote for deletion of the ApoE gene were subjected to a normal dietary regimen until the age of eight weeks. These mice (n=8 per group) subsequently received ad libitum and for 12 weeks either a dietary regimen not enriched with cholesterol or fat, or an enriched regimen, containing 1.5 g/kg of cholesterol and 200 g/kg of fat of milk origin. The untreated mice underwent daily intraperitoneal injections of a solution containing DMSO at 10%. The treated mice received by intraperitoneal injection the same solution containing 2 or 20 μg (i.e. 0.1 mg/kg/day or 1 mg/kg/day) of the compound CGP 02-01. Following the blood sample for the biochemical analyses, the mice were killed.
ApoE mice subjected to a dietary regimen rich in cholesterol and fat were killed after 3 months of treatment with the compound CGP 02-01 at doses of 0.1 mg/kg and 1 mg/kg. The abdominal fatty mass was recovered by dissection, dried and expressed as dry weight.

ApoE −/− mice [2] = experiment: Triglyceride deposit in the aortas of ApoE −/− mice; format: in vivo; settings: control 185±33
Source text: as §1
The triglycerides which accumulate in the aortic wall were measured in the following manner: the aortas of the animals are rinsed with physiological saline after dissection. The lipid mass of the adventitia is eliminated by dissection and the intima media is dehydrated. The triglyceride level is measured and expressed as the weight of triglycerides per dry weight of tissue.

ApoE −/− mice [3] = experiment: HDL level in plasma, ApoE −/− mice on regimen rich in cholesterol; format: in vivo
Source text: as §1, with “The treated mice received by intraperitoneal injection the same solution containing 2 or 20 μg (i.e. 0.1 mg/kg/day or 1 mg/kg/day) of the compound CGP 02-01.” left out
The plasma HDL level is measured by tried and trusted commercial methods which use high density lipoprotein separation reagents and by measurement of the cholesterol level associated with these high molecular weight lipoproteins (Biomérieux kit ref. 61533 for example).

ApoE negative mice = experiment: Weight gain / abdominal fatty mass in ApoE negative mice on normal regimen; format: in vivo; settings: 20 μg per day for 41 days; normal dietary regimen; FIG. 2
Description: The mice were treated for 41 days at a dose of 20 μg of compound CGP02-01 per day. The control mice and the treated mice were fed with a normal dietary regimen without any cholesterol overload.

ApoE −/− mice [4] = experiment: Circulating triglycerides, ApoE −/− mice on regimen rich in cholesterol and fat; format: in vivo; settings: 1 mg/kg; 3 months
Source text: as §1, with “Following the blood sample for the biochemical analyses, the mice were killed.” left out
Assay of serum triglycerides may be performed enzymatically using the commercially available kit. […] The glycerol 3 phosphate is subsequently transformed into dihydroxyacetone in generating oxygenated water (H202) which may be detected by formation of quinoneimine in the presence of parachlorophenol, amino-4-antipyrin and peroxidase. The intensity of the quinoneimine coloration is subsequently measured at 505 nm. This coloration is proportional to the quantity of triglycerides present in the sample.

ApoE −/− mice [5] = experiment: Insulin in plasma, ApoE −/− mice on regimen rich in cholesterol; format: in vivo
Source text: as §1
Assay of insulin in plasma may be performed by radioimmunological assay using commercially available kits comprising specific anti-insulin antibodies of mice or rats. One may for example use the rat/mouse ELISA kits, Linco research (ref. EZRMI-13K).

Wistar rats = experiment: Circulating triglycerides, rats on dietary regimen rich in fructose; format: in vivo; settings: oral
Description: Secondly, the activity of the compound CGP 02-01 was studied using a reference rat-fructose model. Groups of Wistar rats (n=12) were subjected for 3 weeks to a dietary regimen containing […] of fructose. […] Groups of rats subsequently received by forced feeding 50 mg/kg of the compound CGP 02-01 dissolved in a 2% tween solution prepared in methylcellulose. The blood samples for the biochemical analyses were performed after 1, 2 and 3 weeks. Independent groups of rats wee treated under the same conditions with metformin hydrochloride at a dose of 50 mg/kg. The metformin served as a reference in this metabolic syndrome model. Assay of serum triglycerides may be performed enzymatically using the commercially available kit. One may use kits from Biomérieux for example (ref. 61.238). In summary, the triglycerides are treated with a lipase in order to generate fatty acids. In the presence of ATP, the glycerol is transformed by glycerokinase into glycerol 3 phosphate. The glycerol 3 phosphate is subsequently transformed into dihydroxyacetone in generating oxygenated water (H202) which may be detected by formation of quinoneimine in the presence of parachlorophenol, amino-4-antipyrin and peroxidase. The intensity of the quinoneimine coloration is subsequently measured at 505 nm. This coloration is proportional to the quantity of triglycerides present in the sample.

THP1 cells = experiment: Inhibition of binding and accumulation of cyanine 3-marked LDLox as lipid vesicles in differentiated THP1 macrophage cells; format: cell-based
Description: The culture medium may be replaced every two days.
In the present example, the accumulation of lipid vesicles within the cell was measured using THP1 cells following fixation with paraformaldehyde in PBS medium using a solution containing a fluorescent marker of the Oil Red O type in order to visualise the vesicles. The image of the cells rich in vesicles was analysed using a microscope ecqluipped with a CCD camera and software necessary for the analysis.
The medium was replaced every 2-3 days.
The differentiated THP-1 were subsequently incubated with LDLox coupled with cyanine-3 (1.5 μg/ml) in the presence or absence of the molecule CGP02-01 (concentrations of between 10^−5M and 3.1.6 10^−10M) for 24 hours at 37° C., 5% CO2. […] Each image was analysed and quantified with the MetaMorph software (Universal Imaging).

## COc1cc(O)c(/C=N/NC(=O)c2cc3ccccc3s2)c(OC)c1 [CGP02-01, N′-[(1E)-(2-hydroxy-4,6-dimethoxyphenyl)methylene]-1-benzothiophene-2-carbohydrazide]
ApoE −/− mice [1]
  Reduction in abdominal fatty mass: 48.3%
ApoE −/− mice [1]; control 760±231, p<0.01
  Abdominal fatty mass (dry weight): 393 ± 78 mg
ApoE −/− mice [2]; 0.1 mg/kg
  Triglyceride deposit on the aortic wall: 156 ± 31 µg/mg
ApoE −/− mice [2]; 1 mg/kg, three months, n=8
  Triglyceride deposit on the aortic wall: 131 ± 42 µg/mg (dry weight)
ApoE −/− mice [3]; 0.1 mg/kg, cholesterol-rich regimen, untreated 0.11 ± 0.05
  Plasma HDL level: 0.15 ± 0.06 g/L
ApoE −/− mice [3]; 1 mg/kg, cholesterol-rich regimen, untreated 0.11 ± 0.05
  Plasma HDL level: 0.15 ± 0.05 g/L
ApoE −/− mice [3]; regimen rich in cholesterol and fatty acid
  Variation of plasma HDL level: 38.2%
ApoE −/− mice [3]; regimen rich in cholesterol and fatty acid, dose not stated, control 0.11±0.005
  Plasma HDL level: 0.15 ± 0.005 g/L
ApoE negative mice
  Weight gain (abdominal fatty mass): reduction in weight gain
ApoE −/− mice [4]
  Variation of plasma triglyceride level, treated in relation to untreated mice: twice as great
ApoE −/− mice [5]; 0.1 or 1 mg/kg
  Variation of plasma insulin level: 18.8%
ApoE −/− mice [5]; 0.1 or 1 mg/kg IP, 3 months, control 1.17±0.2, p<0.01
  Plasma insulin level: 0.95 ± 0.16 ng/mL
Wistar rats; 50 mg/kg, 3 weeks, control 1.39±0.13
  Plasma triglyceride level: 0.47 ± 0.07 g/L
Wistar rats; p<0.01
  Variation of plasma triglyceride level: 66.2%
THP1 cells; 1 μM, differentiated THP1 macrophage cells
  Inhibition of the accumulation of lipid vesicles: major inhibition
THP1 cells; Homo sapiens, THP-1, cells expressing the scavenger CD36, lipoproteins marked with cyanine 3, read-out: Inhibition of accumulation of LDLox in (%)
  inhibition at 2.5 µM: 76%
THP1 cells; Homo sapiens, THP-1, lipoproteins marked with Cyanine 3, dose response curve, FIG. 1, read-out: CI50, accumulation of lipid vesicles in macrophage cell
  IC50: 500 nM
THP1 cells; Homo sapiens, THP-1 cells, 24 hours, read-out: Inhibition at 2.5 μM on THP-1 cells (24 hours)
  inhibition at 2.5 µM: 76%

Reference: patent publication US20070161697A1, “Hydrazide type compounds and the use thereof in pharmaceutical compositions for the treatment of cardiovascular diseases” (priority 2004, published 2007)
